Data set [1] deals with male ICR mice. The data set is classed as in vivo, mouse. The conditions noted are these: 7-day im 0.15 and 0.5 mg/kg. The procedure: For carrying out these experiments 90 male ICR mice were used, they were divided equally into three groups (30 animals per group) for each study and in these groups they were subdivided into subgroups of 10 mice each and treated as follows: mice of the first subgroup were injected with normal saline im, the second subgroup animals were treated with Az (0.15 mg/kg im) and the animals of the third subgroup were treated with Az (0.50 mg/kg im). The drugs were injected into the quadriceps muscle of the thigh (musculus quadriceps femoris) daily for seven days (1 mL/kg).
On the last 7th day of the Az administration, the mice of the second group (30 animals) were immunized intraperitoneally with a 1:1 mixture of 200 μL of bovine serum albumin (BSA, 0.5 mg/mL) with a complete Freund’s adjuvant. 10 days after the 1st immunization, the mice received the second 200 μL ip injection of the antigen (BSA, 0.5 mg/mL) in an incomplete Freund’s adjuvant (1:1 ratio).

Data set [2] concerns human muscle-type nAChR fetal form α1β1γδ. The settings on record: Xenopus oocytes; cited from earlier work.
In data set [3] the target is T1, mouse muscle type α1β1εδ nAChR (Mus musculus, UniProt P02716+P04756+P20782).
T1 construct: expressed in transfected cells; host or cells: mouse neuroblastoma Neuro2a, transient transfection (pRBG4 plasmids), co-expressed with Case12 calcium sensor
Nature of the data set: Calcium imaging of ACh-evoked [Ca2+]i rise in Neuro2a cells expressing muscle nAChR (Case12 sensor). Format: cell-based. The protocol: Mouse neuroblastoma Neuro2a cells were purchased from the Russian collection of cell cultures (Institute of Cytology, Russian Academy of Sciences, Saint Petersburg, Russia). Cells were cultured in DMEM (Paneco, Moscow, Russia) supplemented with 10% FBS. They were sub-cultured the day before transfection and were plated at a density of 10,000 cells per well in a 96-well black plate. On the next day Neuro2a cells were transiently transfected with plasmids coding mouse muscle α1β1δε nAChR (pRBG4-vector) and a fluorescent calcium sensor Case12 (pCase12-cyto vector, Evrogen, Moscow, Russia) in a molar ratio of 2:1 following a lipofectamine transfection protocol (ThermoFisher Scientific, Waltham, MA, USA). Human α7 nAChR (α7 nAChR-pCEP4) was expressed accordingly with a co-expression of the human chaperone Ric-3 (Ric3-pCMV6-XL5, OriGene, Rockville, MD, USA) in a molar ratio 4:1. The transfected cells were grown at 37 °C in a CO2 incubator for 48–72 h, before performing the calcium imaging assay.
Calcium imaging procedure was performed as published earlier. Briefly, after removing the growth medium, the transfected Neuro2a cells and cultivated SH-SY5Y cells were washed with a buffer containing 140 mM NaCl, 2 mM CaCl2, 2.8 mM KCl, 4 mM MgCl2, 20 mM HEPES, 10 mM glucose; pH 7.4. Neuro2a cells expressing muscle nAChR and the protein calcium sensor Case12 were proceeded directly, while SH-SY5Y cells expressing human α3-containing nAChRs natively were loaded with a fluorescent dye Fluo-4, AM (1.824 μM, ThermoFisher Scientific, Waltham, MA, USA) and a water-soluble probenecid (1.25 mM, ThermoFisher Scientific, Waltham, MA, USA) for 30 min at 37 °C and then were kept for 30 min at room temperature according to the manufacturer’s protocol.
To detect the human α7 nAChR-mediated calcium response, transfected Neuro2a cells were incubated with its positive allosteric modulator PNU120596 (10 μM, Tocris Bioscience, Bristol, UK) for 20 min at room temperature before acetylcholine (Sigma-Aldrich Chemie Gmbh, Munich, Germany) addition. To assess mouse muscle or human α3-containing nAChRs this step was skipped. […]
The plates were transferred to the multimodal microplate reader Hidex Sence (Hidex, Turku, Finland) where the cells were excited by light of 485 nm wavelength and emitted fluorescence was detected at 535 ± 10 nm. Fluorescence was recorded every 2 s for three minutes following agonist addition. Responses were measured as peak intensity minus basal fluorescence level and were expressed as a percentage of the maximal response obtained to agonist. Data files were analyzed using Hidex Sence software (Hidex, Turku, Finland) and OriginPro 7.5 software (OriginLab, Northampton, MA, USA, for statistical analysis).

In data set [4] the test system is male and female ICR mice. Format: in vivo, mouse. The conditions noted are these: 0.15 mg/kg subcutaneously, n = 10. The protocol: Allergenicity of Az was studied in a delayed-type hypersensitivity test on male (20 animals) and female (20 animals) adult ICR mice. The mice were divided into four groups (two control and two experimental groups) of 10 animals (males or females) per group. Mice of the experimental groups were injected subcutaneously at the base of a tail with Az solution (0.15 mg/kg) emulsified in Freund’s complete adjuvant in a ratio of 1:1 (2 mL/kg). Similarly, the mice in the control groups were administered with a suspension of normal saline in Freund’s complete adjuvant. Five days later all animals received an injection of Az (0.15 mg/kg, 1.33 mL/kg) in the pad of the left hind paw. To estimate the intensity of the studied allergic reaction, 6, 12 and 24 h after the second Az injection the thickness of the left and right hind mouse paws was measured with a digital caliper.

The test system of data set [5] is human muscle-type nAChR adult form α1β1εδ. The conditions noted are these: Xenopus oocytes; cited from earlier work.

No end group written: not given here.

We go through one substance from PMC5793121 (Toxins, 2018).

Usually IC50 stands for the concentration at which inhibition is half-maximal.

T1 sequence (P09690 24-501): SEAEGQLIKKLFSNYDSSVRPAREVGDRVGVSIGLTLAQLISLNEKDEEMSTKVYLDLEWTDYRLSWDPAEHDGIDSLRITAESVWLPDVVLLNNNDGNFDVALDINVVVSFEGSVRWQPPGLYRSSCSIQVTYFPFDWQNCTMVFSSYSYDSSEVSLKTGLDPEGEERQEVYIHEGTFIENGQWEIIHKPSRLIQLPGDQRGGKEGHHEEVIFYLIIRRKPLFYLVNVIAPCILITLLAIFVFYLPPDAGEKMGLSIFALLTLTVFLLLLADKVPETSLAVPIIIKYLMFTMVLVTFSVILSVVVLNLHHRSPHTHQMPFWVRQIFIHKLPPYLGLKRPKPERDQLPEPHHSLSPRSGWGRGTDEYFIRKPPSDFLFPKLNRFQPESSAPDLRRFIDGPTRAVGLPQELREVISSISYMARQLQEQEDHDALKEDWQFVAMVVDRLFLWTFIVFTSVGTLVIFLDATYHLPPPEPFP
T1 sequence (P04756 21-457): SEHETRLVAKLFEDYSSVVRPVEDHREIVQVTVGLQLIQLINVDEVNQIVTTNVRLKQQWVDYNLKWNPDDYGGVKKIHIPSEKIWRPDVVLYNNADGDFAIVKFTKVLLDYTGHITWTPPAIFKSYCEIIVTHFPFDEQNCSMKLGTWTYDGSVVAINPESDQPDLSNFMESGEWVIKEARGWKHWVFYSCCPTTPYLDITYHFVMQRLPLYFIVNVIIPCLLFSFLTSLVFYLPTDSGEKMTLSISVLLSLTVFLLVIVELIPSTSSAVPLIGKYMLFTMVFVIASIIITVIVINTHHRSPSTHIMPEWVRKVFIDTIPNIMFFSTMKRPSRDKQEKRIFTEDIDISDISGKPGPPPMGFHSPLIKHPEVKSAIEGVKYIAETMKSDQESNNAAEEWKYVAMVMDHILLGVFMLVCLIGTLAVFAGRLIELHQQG
T1 sequence (P02716 25-520): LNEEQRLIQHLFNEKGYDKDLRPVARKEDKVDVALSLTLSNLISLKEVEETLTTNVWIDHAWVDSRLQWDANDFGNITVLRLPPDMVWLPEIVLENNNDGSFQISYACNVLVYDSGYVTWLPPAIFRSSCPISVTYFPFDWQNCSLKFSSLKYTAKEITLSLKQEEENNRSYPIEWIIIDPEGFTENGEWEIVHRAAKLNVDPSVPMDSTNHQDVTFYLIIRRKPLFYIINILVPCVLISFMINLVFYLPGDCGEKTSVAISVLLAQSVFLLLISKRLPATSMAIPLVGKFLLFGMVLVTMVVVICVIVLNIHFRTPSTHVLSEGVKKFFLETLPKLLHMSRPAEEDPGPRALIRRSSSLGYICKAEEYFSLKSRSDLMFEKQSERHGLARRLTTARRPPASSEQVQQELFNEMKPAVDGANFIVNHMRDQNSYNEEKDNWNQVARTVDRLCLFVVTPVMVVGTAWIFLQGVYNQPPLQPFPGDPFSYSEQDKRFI
T1 sequence (P20782 21-493): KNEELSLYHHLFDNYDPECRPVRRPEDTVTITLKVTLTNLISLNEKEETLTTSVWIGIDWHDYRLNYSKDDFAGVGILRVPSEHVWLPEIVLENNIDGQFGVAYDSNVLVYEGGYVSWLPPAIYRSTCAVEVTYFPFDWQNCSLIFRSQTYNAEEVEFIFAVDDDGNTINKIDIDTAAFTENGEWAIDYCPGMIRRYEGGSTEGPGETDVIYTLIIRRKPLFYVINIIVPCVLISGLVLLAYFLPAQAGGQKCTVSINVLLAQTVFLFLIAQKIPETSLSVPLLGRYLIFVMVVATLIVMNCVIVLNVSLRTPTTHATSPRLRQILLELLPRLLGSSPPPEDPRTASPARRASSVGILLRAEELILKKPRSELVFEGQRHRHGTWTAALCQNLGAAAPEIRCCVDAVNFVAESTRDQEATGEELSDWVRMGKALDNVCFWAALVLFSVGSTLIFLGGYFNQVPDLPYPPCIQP

With “DNWWPKPPHQGPRPPRPRPKP-NH2 [Az, azemiopsin]”, the “immune response to BSA (IgG titers in blood serum)” value in data set [1] is listed as “did not demonstrate any significant difference”. Moreover, the IC50 is 1560 ± 370 nM in data set [2]; 19 ± 8 nM in data set [3] (30 μM ACh (EC100), transfected Neuro2a cells, Case12 sensor, 15 min preincubation, mean ± SEM, 4 independent experiments, read-out: IC50, inhibition of ACh-evoked calcium response of muscle nAChR); 440 ± 100 nM in data set [5]. In data set [3] (ratio of calcium imaging IC50 values α7 / muscle), the “selectivity to muscle receptor versus α7 nAChR” value is reported as “about 140 times”. The “allergic effect in the delayed-type hypersensitivity reaction test” value in data set [4] is given as “no allergic effect”.
